Test results from US10988477B2 (Merck Patent GmbH, priority 2018, dated 2021).
pIC50, pKi: −log10 of the molar value. Structures can show the parent of a compound that is named as a salt.

Assays:
[1] = molecular target: intracellular GCN2 (phosphorylation of the GCN2 substrate eIF2α) (Homo sapiens, UniProt Q9P2K8); test: GCN2 cellular inhibition assay (AlphaScreen SureFire P-eIF2α Ser51, borrelidin-treated U2OS cells); assay type: cell-based; settings: biomarker assay, phosphorylated eIF2α Ser51 in borrelidin-treated U2OS cells
Chain of intracellular GCN2 (phosphorylation of the GCN2 substrate eIF2α) (Q9P2K8 whole entry): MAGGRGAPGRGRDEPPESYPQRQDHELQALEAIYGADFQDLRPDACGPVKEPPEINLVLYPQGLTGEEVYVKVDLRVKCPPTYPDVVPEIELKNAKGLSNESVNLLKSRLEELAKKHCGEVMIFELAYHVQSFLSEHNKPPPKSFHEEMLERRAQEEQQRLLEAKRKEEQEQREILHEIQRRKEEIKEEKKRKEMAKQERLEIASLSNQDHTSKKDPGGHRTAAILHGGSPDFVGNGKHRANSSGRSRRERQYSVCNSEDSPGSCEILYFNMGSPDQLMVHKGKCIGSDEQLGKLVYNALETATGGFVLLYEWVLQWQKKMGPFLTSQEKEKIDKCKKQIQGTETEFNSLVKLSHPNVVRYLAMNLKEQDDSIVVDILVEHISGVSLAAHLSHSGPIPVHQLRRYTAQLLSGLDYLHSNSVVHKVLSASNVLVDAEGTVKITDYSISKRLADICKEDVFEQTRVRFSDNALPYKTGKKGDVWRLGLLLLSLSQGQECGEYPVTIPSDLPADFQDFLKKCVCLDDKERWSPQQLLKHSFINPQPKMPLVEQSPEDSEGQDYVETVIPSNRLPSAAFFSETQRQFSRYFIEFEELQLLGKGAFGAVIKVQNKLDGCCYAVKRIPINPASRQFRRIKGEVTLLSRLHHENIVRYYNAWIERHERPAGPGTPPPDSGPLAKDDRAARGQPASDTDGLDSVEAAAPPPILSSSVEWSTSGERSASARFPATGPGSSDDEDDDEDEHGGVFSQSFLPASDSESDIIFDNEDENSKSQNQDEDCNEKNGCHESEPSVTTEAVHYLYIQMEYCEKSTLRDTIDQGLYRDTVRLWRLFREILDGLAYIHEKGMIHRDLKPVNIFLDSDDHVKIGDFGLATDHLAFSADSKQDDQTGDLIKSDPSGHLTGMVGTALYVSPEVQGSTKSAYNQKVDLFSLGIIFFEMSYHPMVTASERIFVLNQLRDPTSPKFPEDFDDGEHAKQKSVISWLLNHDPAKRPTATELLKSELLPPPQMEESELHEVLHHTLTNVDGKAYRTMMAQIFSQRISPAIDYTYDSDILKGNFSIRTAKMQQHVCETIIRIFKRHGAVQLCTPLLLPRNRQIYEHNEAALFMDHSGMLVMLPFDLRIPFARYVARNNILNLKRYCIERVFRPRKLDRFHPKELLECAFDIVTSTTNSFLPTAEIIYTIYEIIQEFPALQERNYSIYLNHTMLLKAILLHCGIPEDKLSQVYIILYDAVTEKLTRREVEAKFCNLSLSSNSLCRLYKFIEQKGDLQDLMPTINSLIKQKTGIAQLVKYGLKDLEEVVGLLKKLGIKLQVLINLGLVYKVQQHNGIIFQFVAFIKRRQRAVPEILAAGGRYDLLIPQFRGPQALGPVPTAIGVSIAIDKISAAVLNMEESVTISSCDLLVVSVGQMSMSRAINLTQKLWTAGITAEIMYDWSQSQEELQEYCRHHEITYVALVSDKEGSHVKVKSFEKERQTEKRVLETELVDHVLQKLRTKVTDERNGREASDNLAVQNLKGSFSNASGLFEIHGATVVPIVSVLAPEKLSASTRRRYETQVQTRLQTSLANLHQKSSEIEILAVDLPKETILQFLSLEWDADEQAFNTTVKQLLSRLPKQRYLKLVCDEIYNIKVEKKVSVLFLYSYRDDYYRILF
Method in brief: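 First, U2OS cells are plated and left overnight at 37 °C. Next, compounds (from 40 μM final, 4-fold steps) and 10 μM borrelidin are added for 1 h, cells lysed, and phospho-Ser51 eIF2α detected by AlphaScreen bead sandwich. Inhibition is computed versus borrelidin-only wells.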

[2] = molecular target: GCN2 kinase (Homo sapiens, UniProt Q9P2K8); test: GCN2 enzyme inhibition assay (Transcreener ADP2 fluorescence polarization); assay type: biochemical; settings: 280 μM ATP
Chain of GCN2 kinase (Q9P2K8 whole entry): as above
Method in brief: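 Kinase activity is followed as ADP formation, measured by fluorescence polarization, using 4 nM enzyme with 280 μM ATP and 200 μM (RS)7 peptide at pH 7.5 and 25 °C for 1 h. Values come from a non-linear tight-binding fit.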

[3] = Enzyme activity for compounds of Formula IV, Ki(app), 25° C.
[4] = compounds of Formula II, 4 nM GCN2 kinase

SMILES | pIC50 ([1]; compounds of Formula IV) | pKi [2, 3] | pIC50 ([1]; compounds of Formula II) | pKi [2, 4]
COc1cn2c(-c3nccc(N4CCN(C(C)=O)CC4)n3)cnc2cn1 [IV-25, 1-(4-(2-(6-Methoxyimidazo[1,2-a]pyrazin-3-yl)pyrimidin-4-yl)piperazin-1-yl)ethan-1-one] | < 5.30 | 6.00 to 7.00 |  | 
NS(=O)(=O)NCC1CCCN(c2ccnc(-c3cnc4cnc(C(F)F)cn34)n2)C1 (stereo not shown) [IV-74, 6-(Difluoromethyl)-3-[4-[3-[(sulfamoylamino)methyl]-1-piperidyl]pyrimidin-2-yl]imidazo[1,2-a]pyrazine] | < 5.30 | 6.00 to 7.00 |  | 
CC1C(CNS(C)(=O)=O)C(F)(F)CCN1c1cc(-c2cnc3ccc(C(F)F)nn23)ncn1 (single isomer, unassigned) [II-303, N-((1-(6-(6-(Difluoromethyl)imidazo[1,2-b]pyridazin-3-yl)pyrimidin-4-yl)-4,4-difluoro-2-methylpiperidin-3-yl)methyl)methanesulfonamide] |  |  | 5.30 to 6.30 | 6.00 to 8.00
CC1=C(F)C(CNS(C)(=O)=O)CN(c2cc(-c3cnc4ccc(C(F)F)nn34)ncn2)C1 (stereo not shown) [II-538, N-((1-(6-(6-(Difluoromethyl)imidazo[1,2-b]pyridazin-3-yl)pyrimidin-4-yl)-4-fluoro-5-methyl-1,2,3,6-tetrahydropyridin-3-yl)methyl)methanesulfonamide] |  |  | > 6.30 | > 8.00
CC(O)c1ccc2ncc(-c3cc(N4CCO[C@H](CNS(C)(=O)=O)C4)ncn3)n2n1 (stereo partly drawn) [II-338, N-(((2S)-4-(6-(6-(1-Hydroxyethyl)imidazo[1,2-b]pyridazin-3-yl)pyrimidin-4-yl)morpholin-2-yl)methyl)methanesulfonamide trifluoroacetate] |  |  | < 5.30 | 6.00 to 8.00
OC[C@@H]1C[C@@H](C(F)(F)F)CN(c2cc(-c3cnc4ccc(C(F)F)nn34)ncn2)C1 [II-314, ((3R,5R)-1-(6-(6-(Difluoromethyl)imidazo[1,2-b]pyridazin-3-yl)pyrimidin-4-yl)-5-(trifluoromethyl)piperidin-3-yl)methanol] |  |  | < 5.30 | 6.00 to 8.00
CS(=O)(=O)NCC1CN(c2cc(-c3cnc4ccc(C(F)F)nn34)ncn2)CCN1 (stereo not shown) [II-450, N-((4-(6-(6-(Difluoromethyl)imidazo[1,2-b]pyridazin-3-yl)pyrimidin-4-yl)piperazin-2-yl)methyl)methanesulfonamide] |  |  | 5.30 to 6.30 | 6.00 to 8.00
CC(=O)N1CCC(c2cc(-c3cnc4ccc(C(F)F)nn34)ncn2)C1 (stereo not shown) [II-253, 1-(3-(6-(6-(Difluoromethyl)imidazo[1,2-b]pyridazin-3-yl)pyrimidin-4-yl)pyrrolidin-1-yl)ethan-1-one] |  |  | < 5.30 | 6.00 to 8.00
CC1CN(c2ccnc(-c3cnc4cnc(C(F)(F)F)cn34)n2)C(C)C(c2cn[nH]c2)O1 (stereo not shown) [IV-415, 3,6-Dimethyl-2-(1H-pyrazol-4-yl)-4-(2-(6-(trifluoromethyl)imidazo[1,2-a]pyrazin-3-yl)pyrimidin-4-yl)morpholine] | > 6.30 | > 8.00 |  | 
CC(=O)N1CCN(c2nccc(-c3cnc4cnc(C(N)=O)cn34)n2)CC1 [IV-182, 3-(2-(4-Acetylpiperazin-1-yl)pyrimidin-4-yl)imidazo[1,2-a]pyrazine-6-carboxamide] | 5.30 to 6.30 | 7.00 to 8.00 |  | 
CC(=O)N1CCN(c2ccnc(-c3cnc4cnc(C(F)(F)F)cn34)n2)CC1 [IV-24, 1-(4-(2-(6-(Trifluoromethyl)imidazo[1,2-a]pyrazin-3-yl)pyrimidin-4-yl)piperazin-1-yl)ethan-1-one] | < 5.30 | 6.00 to 7.00 |  | 
CC1CN(c2cc(-c3cnc4ccc(C(F)F)nn34)ccn2)CC(CNS(C)(=O)=O)C1(F)F (stereo not shown) [II-58, N-((1-(4-(6-(Difluoromethyl)imidazo[1,2-b]pyridazin-3-yl)pyridin-2-yl)-4,4-difluoro-5-methylpiperidin-3-yl)methyl)methanesulfonamide] |  |  | > 6.30 | > 8.00
Cc1cc(N2CC(C)NC(c3cn[nH]c3)C2C)nc(-c2cnc3cnc(C(F)(F)F)cn23)n1 (stereo not shown) [IV-627, 3-(4-(2,5-Dimethyl-3-(1H-pyrazol-4-yl)piperazin-1-yl)-6-methylpyrimidin-2-yl)-6-(trifluoromethyl)imidazo[1,2-a]pyrazine] | 5.30 to 6.30 | > 8.00 |  | 
NC(=O)C1COCCN(c2ccnc(-c3cnc4cnc(C(F)F)cn34)n2)C1 (stereo not shown) [IV-128, 4-(2-(6-(Difluoromethyl)imidazo[1,2-a]pyrazin-3-yl)pyrimidin-4-yl)-1,4-oxazepane-6-carboxamide] | < 5.30 | 6.00 to 7.00 |  | 
OC1(c2cn[nH]c2)CCCN(c2ccnc(-c3cnc4cnc(C(F)(F)F)cn34)n2)C1 (stereo not shown) [IV-386, 3-(1H-Pyrazol-4-yl)-1-(2-(6-(trifluoromethyl)imidazo[1,2-a]pyrazin-3-yl)pyrimidin-4-yl)piperidin-3-ol] | 5.30 to 6.30 | 7.00 to 8.00 |  | 
CC(=O)N1CCN(c2cccc(-c3cnc4ccc(C(F)F)nn34)c2)CC1 [II-150, 1-(4-(3-(6-(Difluoromethyl)imidazo[1,2-b]pyridazin-3-yl)phenyl)piperazin-1-yl)ethanone] |  |  | 5.30 to 6.30 | 6.00 to 8.00
OC[C@@H]1CN(c2cc(-c3cnc4ccc(C(F)F)nn34)ncn2)C[C@@H](C(F)(F)F)O1 [II-297, ((2S,6S)-4-(6-(6-(Difluoromethyl)imidazo[1,2-b]pyridazin-3-yl)pyrimidin-4-yl)-6-(trifluoromethyl)morpholin-2-yl)methanol] |  |  | 5.30 to 6.30 | 6.00 to 8.00
C[C@H]1[C@@H](c2cn[nH]c2)NCCN1c1ccnc(-c2cnc3cnc(Br)cn23)n1 (racemic) [IV-343, Cis-6-Bromo-3-(4-(2-methyl-3-(1H-pyrazol-4-yl)piperazin-1-yl)pyrimidin-2-yl)imidazo[1,2-a]pyrazine] | > 6.30 | > 8.00 |  | 
NC(=O)c1cn2c(-c3nccc(N4CCOC(c5cn[nH]c5)C4)n3)cnc2cn1 (stereo not shown) [IV-38, 3-(4-(2-(1H-Pyrazol-4-yl)morpholino)pyrimidin-2-yl)imidazo[1,2-a]pyrazine-6-carboxamide] | < 5.30 | 7.00 to 8.00 |  | 
O=C1NCCN2CCN(c3ccnc(-c4cnc5cnc(C(F)F)cn45)n3)CC12 (stereo not shown) [IV-86, 8-(2-(6-(Difluoromethyl)imidazo[1,2-a]pyrazin-3-yl)pyrimidin-4-yl)hexahydro-2H-pyrazino[1,2-a]pyrazin-1(6H)-one] | < 5.30 | 6.00 to 7.00 |  | 
NS(=O)(=O)CC1CCCN(c2cc(-c3cnc4ccc(C(F)F)nn34)ncn2)C1 (stereo not shown) [II-219, (1-(6-(6-(Difluoromethyl)imidazo[1,2-b]pyridazin-3-yl)pyrimidin-4-yl)piperidin-3-yl)methanesulfonamide] |  |  | > 6.30 | > 8.00
CS(=O)(=O)N1CCC2(CCN2c2cncc(-c3cnc4ccc(C(F)F)nn34)c2)CC1 [II-42, 6-(Difluoromethyl)-3-(5-(7-(methylsulfonyl)-1,7-diazaspiro[3.5]nonan-1-yl)pyridin-3-yl)imidazo[1,2-b]pyridazine] |  |  | < 5.30 | 6.00 to 8.00
CS(=O)(=O)NCC1CCCN(c2ccnc(-c3cnc4ccc(C(F)F)nn34)c2)C1 (stereo not shown) [II-125, N-((1-(2-(6-(Difluoromethyl)imidazo[1,2-b]pyridazin-3-yl)pyridin-4-yl)piperidin-3-yl)methyl)methanesulfonamide] |  |  | > 6.30 | > 8.00
